Test results taken from BindingDB's records for doi:10.3109/14756366.2012.663362 (Institute for Advanced Studies in Basic Sciences (IASBS), 2013).
pIC50: −log10 of the molar value.

Target: Acetylcholinesterase (Electrophorus electricus, UniProt O42275)
Test: AChE Inhibition Assay
Details: pH 8; 25 °C
Description: Inhibitory activities of synthesized α-oxycarbanilinophosphonates were determined at 25°C by the colorimetric method of Ellman et al. [Ellman et al., Biochem. Pharmacol., 7:88-95]. The assay solution contained 0.1 M phosphate buffer, pH 8, 0.3 mM 5,5'-dithiobis(2-nitrobenzoic acid) (DTNB), 0.125 units of AChE (Sigma Chemical Co. from electric eel (Electrophorous electricus)), and 0.2 mM acetylthiocholine iodide as the substrate in a total volume of 2.5 mL. In order to provide sufficient time for interaction with either PAS and/or active site of the enzyme, particularly in competition with the substrate, the synthesized compounds were added to the assay solution and preincubated with the enzyme for 10 min at 25°C. In order to solubilize the synthesized compounds, the reaction mixture contained 2% ethanol (50 μL in 2.5 mL reaction mixture volume). Control experiments were run and it was seen that no inhibitory effect was exerted on the enzyme by ethanol. The changes in abs

Sequence of Acetylcholinesterase (O42275 whole entry): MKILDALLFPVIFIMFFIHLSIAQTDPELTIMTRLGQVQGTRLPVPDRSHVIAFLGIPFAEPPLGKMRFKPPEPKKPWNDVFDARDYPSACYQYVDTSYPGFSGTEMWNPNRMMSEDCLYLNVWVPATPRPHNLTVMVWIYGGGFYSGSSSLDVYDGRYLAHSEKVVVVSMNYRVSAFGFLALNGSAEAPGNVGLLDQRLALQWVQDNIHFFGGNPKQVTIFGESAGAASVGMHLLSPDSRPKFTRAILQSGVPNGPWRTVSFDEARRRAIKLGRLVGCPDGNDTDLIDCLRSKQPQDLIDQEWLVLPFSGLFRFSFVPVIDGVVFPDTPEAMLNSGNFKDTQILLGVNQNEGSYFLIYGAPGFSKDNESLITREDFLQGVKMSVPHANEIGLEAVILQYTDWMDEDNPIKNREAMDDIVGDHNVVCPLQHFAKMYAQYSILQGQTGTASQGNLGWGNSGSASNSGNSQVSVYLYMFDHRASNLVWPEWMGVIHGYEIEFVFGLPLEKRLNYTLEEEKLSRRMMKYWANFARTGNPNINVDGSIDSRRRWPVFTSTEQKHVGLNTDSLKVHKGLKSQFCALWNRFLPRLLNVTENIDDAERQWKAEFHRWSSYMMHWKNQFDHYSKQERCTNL

`CCOP(=O)(OCC)C(OC(=O)Nc1ccc(C)c(Cl)c1)c1ccc(Cl)cc1Cl` (stereo not given) [Diethyl[(3-chloro-4-methylanilinocarbonyl)oxy](2,4-dichlorophenyl)methyl phosphonate (4h)] and `CCOP(=O)(OCC)C(OC(=O)Nc1ccc(C)c(Cl)c1)c1ccc([N+](=O)[O-])cc1` (stereo not drawn) [α-Oxycarbanilinophosphonate, 4i] are within 0.2 log units of each other in pIC50: 5.20 for the first, 5.13 for the second.

Going from `CCOP(=O)(OCC)C(OC(=O)Nc1ccccc1)c1ccc(SC)cc1` (stereo not drawn) [α-Oxycarbanilinophosphonate, 4d] to `CCOP(=O)(OCC)C(/C=C/c1ccccc1[N+](=O)[O-])OC(=O)Nc1ccccc1` (stereo not drawn) [α-Oxycarbanilinophosphonate, 4f], the pIC50 rises from 3.79 to 4.99 (1.20 log units). The second is the more potent here.

For `CCOP(=O)(OCC)C(OC(=O)NCc1ccccc1)c1cccc2ccccc12` (stereo not drawn) [α-Oxycarbanilinophosphonate, 4l], the pIC50 was 3.38.
